Drawing on US6228626A, “Sarcosine oxidase and process for producing the same” (priority 1998, dated 2001), this text covers Km for one compound.

As usually defined, the Km is the substrate concentration at which the rate is half of its maximum.

The target of the assay is mutant sarcosine oxidase from E. coli JM109 (pSO12 EH), FERM BP-6597; mutant of Bacillus sp. NS-129 sarcosine oxidase (wild type SEQ ID NO: 1) (Bacillus sp. NS-129, UniProt P23342). Kind of assay: Km determination by sarcosine oxidase enzyme assay (formaldehyde/acetyl-acetone colour), Lineweaver-Burk plot. Type of assay: biochemical. Particulars: read-out: Km value (for sarcosine), phosphate buffer pH7.7, 37° C., 10 minutes. The method, then:
0.25M phosphate buffer (0.1 ml, pH7.7), 0.2 M sarcosine solution (0.3 ml) and the enzyme solution with an appropriate concentration (0.1 ml) were mixed and reacted at 37° C. for 10 minutes. Then, 1.0 N acetic acid solution (0.5 ml) was added to the mixture to stop the reaction. To the mixture was added 3 ml of acetyl-acetone color-developing solution (acetyl-acetone, 0.2%(v/v) and diammonium hydrogenphosphate, 10%(w/v) ) (pH6.5) to develop the color at 37° C. for 40 minutes. The absorbance was determined at 410 nm by spectrophotometer. Then, the yield of the enzyme was estimated from the calibration curve of formaldehyde prepared beforehand. The amount of the enzyme which produces 1 μmole of formaldehyde per minute at 37° C. was defined as 1 unit.
The Km value of the enzyme was determined using the assay as described above.

With `CNCC(=O)O` [sarcosine], the Km was roughly 3.5 mM.
